# Numbering of substitutions follows the chain as printed.
# Tests used:
# Assay in all cases: Saturation binding of WK(FITC)YMVm, flow cytometry on HEK293F cells
# [1] = target: T1, wild-type (WT) and mutant FPR2 (Homo sapiens, UniProt P25090, D281A); conditions: FPR2 D281A
# T1 construct: expressed in transfected cells; host or cells: HEK293F
# Description: (§1) Flag-tagged wild-type and mutant FPR2s were cloned into the pTT5 vector and expressed in HEK293F cells. The cells were harvested, and washed with Hanks’ Balanced Salt Solution (HBSS) buffer supplemented with 0.5% bovine serum albumin and 20 mM HEPES, pH 7.4. The cells were then resuspended in the same buffer to the final concentration of 1 × 10^6 cells per ml. The cell-surface expression was measured as mentioned above. […] Mean fluorescent intensity of each well was then read by a FCM (flow cytometry) reader (Millipore). […] For competitive binding of fMLFK, cells were plated in 96-well plates (100,000 cells per well), and incubated with WK(FITC)YMVm at 4 °C for 1 h. The following concentrations of WK(FITC)YMVm were used: 10 nM (wild type, L81^2.60F, E89G, and V105^3.32A), 30 nM (D281^7.32G), 40 nM (H102^3.29F, V160^4.60A, L268^ECL3A, N285^7.36A, and F292^7.43A), and 100 nM (L164^4.64A and T177A). Then increasing concentrations of fMLFK (100 nM–1 mM) were added, and incubated for another 1 h on ice. Mean fluorescent intensity values were measured by flow cytometry. Data were analyzed using Prism 7.0.
# [2] = target: T2, wild-type (WT) and mutant FPR2 (Homo sapiens, UniProt P25090, D281G); conditions: FPR2 D281G
# T2 construct: expressed in transfected cells; host or cells: HEK293F
# T2 sequence (P25090 1-351 D281G): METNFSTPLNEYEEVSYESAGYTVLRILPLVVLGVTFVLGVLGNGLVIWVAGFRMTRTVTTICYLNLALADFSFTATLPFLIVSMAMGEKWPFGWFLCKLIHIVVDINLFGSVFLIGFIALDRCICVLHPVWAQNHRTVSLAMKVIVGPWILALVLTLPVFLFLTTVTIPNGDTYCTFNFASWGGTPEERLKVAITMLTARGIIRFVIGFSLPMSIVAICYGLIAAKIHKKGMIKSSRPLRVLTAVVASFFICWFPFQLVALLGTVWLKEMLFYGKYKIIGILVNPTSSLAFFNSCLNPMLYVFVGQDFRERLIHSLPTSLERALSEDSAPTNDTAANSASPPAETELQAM
# Description: as §1
# [3] = target: T3, wild-type (WT) and mutant FPR2 (Homo sapiens, UniProt P25090, H102F); conditions: FPR2 H102F
# T3 construct: expressed in transfected cells; host or cells: HEK293F
# T3 sequence (P25090 1-351 H102F): T2 sequence (P25090 1-351 D281G) with H102F, G281D
# Description: as §1
# [4] = target: T4, wild-type (WT) and mutant FPR2 (Homo sapiens, UniProt P25090, F292A); conditions: FPR2 F292A
# T4 construct: expressed in transfected cells; host or cells: HEK293F
# T4 sequence (P25090 1-351 F292A): T2 sequence (P25090 1-351 D281G) with G281D, F292A
# Description: as §1
# [5] = tested on: wild-type (WT) and mutant FPR2; set-up: species or system human
# Description: as §1
# [6] = target: T5, wild-type (WT) and mutant FPR2 (Homo sapiens, UniProt P25090, T177A); conditions: FPR2 T177A
# T5 construct: expressed in transfected cells; host or cells: HEK293F
# T5 sequence (P25090 1-351 T177A): T2 sequence (P25090 1-351 D281G) with T177A, G281D
# Description: as §1
# [7] = target: T6, wild-type (WT) and mutant FPR2 (Homo sapiens, UniProt P25090); conditions: FPR2 WT
# T6 construct: expressed in transfected cells; host or cells: HEK293F
# T6 sequence (P25090 1-351): T2 sequence (P25090 1-351 D281G) with G281D
# Description: as §1
# T1 sequence (P25090 whole entry D281A): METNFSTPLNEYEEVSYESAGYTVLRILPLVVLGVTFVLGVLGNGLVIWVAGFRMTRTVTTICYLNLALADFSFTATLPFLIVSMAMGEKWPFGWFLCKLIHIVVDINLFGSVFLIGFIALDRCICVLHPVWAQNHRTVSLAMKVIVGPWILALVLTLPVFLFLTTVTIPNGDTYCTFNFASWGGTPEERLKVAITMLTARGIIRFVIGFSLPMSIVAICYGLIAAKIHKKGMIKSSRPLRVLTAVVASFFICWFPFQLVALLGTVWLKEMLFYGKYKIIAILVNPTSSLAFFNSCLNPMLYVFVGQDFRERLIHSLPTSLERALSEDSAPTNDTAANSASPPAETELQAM
smiles,measurement,setting,value
CSCC[C@H](NC(=O)[C@H](Cc1ccc(O)cc1)NC(=O)[C@H](CCCCNC(=S)Nc1ccc2c(c1)C(=O)OC21c2ccc(O)cc2Oc2cc(O)ccc21)NC(=O)[C@@H](N)Cc1c[nH]c2ccccc12)C(=O)N[C@H](C(=O)N[C@H](CCSC)C(N)=O)C(C)C [WK(FITC)YMVm],"Span (% of WT), saturation binding",[1],42 ± 8 % of WT
same,Kd,"[1]; mean ± s.e.m., n=3, SEM",48.6 ± 17.6 nM
same,"Span (% of WT), saturation binding",[2],39 ± 3 % of WT
same,Kd,"[2]; mean ± s.e.m., n=4, SEM",34.3 ± 14.1 nM
same,"Span (% of WT), saturation binding",[3],44 ± 4 % of WT
same,Kd,"[3]; mean ± s.e.m., n=3, SEM",43.5 ± 16.0 nM
same,"Span (% of WT), saturation binding",[4],54 ± 14 % of WT
same,Kd,"[4]; mean ± s.e.m., n=3, SEM",42.5 ± 14.7 nM
same,reduction of binding affinity of WK(FITC)YMVm,[5]; mutant F257Y vs WT,7 fold
same,binding of WK(FITC)YMVm,[5]; mutants D281G and D281L,decreased binding
same,binding of WK(FITC)YMVm,[5]; mutations D106A and R201A,significantly impaired
same,binding of FPR2 to WK(FITC)YMVm,"[5]; mutations V105F, L109A, F110A, V113A, L164W, F178A, F180A, W254A, F257A and M271A",abolish the binding
same,"Span (% of WT), saturation binding",[6],66 ± 5 % of WT
same,Kd,"[6]; mean ± s.e.m., n=3, SEM",109 ± 34 nM
same,"Span (% of WT), saturation binding",[7],100 % of WT
same,Kd,"[7]; mean ± s.e.m., n=3, SEM",24.0 ± 8.5 nM

# — PMC7058083, “Structural basis of ligand binding modes at the human formyl peptide receptor 2” (Nature Communications, 2020)
